Source: patent US7608620B2, “LPAAT-β inhibitors and uses thereof” (Cell Therapeutics, Inc., priority 2000, dated 2009)

Columns and labels:
[1] = test system: human breast tumor MCF-7 cells; experiment: Proliferation of MCF-7 cells by CyQUANT analysis; assay type: cell-based; details: FIG. 5E
Description: To determine whether administration of LPAAT-β inhibitor would have any effect on cell proliferation in tissue culture, proliferation of human breast tumor MCF-7 cells in microplates were measured by CyQUANT analysis using a green-fluorescent nucleic acid stain optimized to produce a linear detection range from 50 to 50,000 cells in 200 μl volume (Molecular Probes, Eugene, Oreg.) in the presence of various concentrations of a LPAAT-β inhibitor.

[2] = test system: NIH/3T3 cells overexpressing the oncogene Ki-ras; experiment: Tumor growth of NIH/3T3 cells overexpressing Ki-ras injected subcutaneously into nude mice; assay type: in vivo; details: 10 mg/Kg to 100 mg/Kg intra-peritoneally on day 1, 2, 3 and 4; tumors measured on day 8; FIG. 6B
Description: To determine whether administration of LPAAT-β inhibitor would have any effect on tumor growth in mice, 5×10^5 NIH/3T3 cells overexpressing the oncogene Ki-ras were injected subcutaneously into nude mice. An LPAAT-β inhibitor 6-chloro-N,N′-diphenyl-[1,3,5]triazine-2,4-diamine, at concentrations that range from 10 mg/Kg to 100 mg/Kg of mouse body weight was injected intra-peritoneally on day 1, 2, 3 and 4 after injection of tumor cells. The size of tumors was then measured on day 8.

[3] = test system: B16 melanoma cells; experiment: Growth of B16 melanoma cells in syngeneic mice; assay type: in vivo; details: FIG. 6C
[4] = test system: Lewis Lung tumor cells; experiment: Growth of Lewis Lung tumor cells in syngeneic mice; assay type: in vivo; details: FIG. 6D
[5] = test system: human DU145 prostate tumor cells; experiment: Human DU145 prostate tumor xenograft in nude mice; assay type: in vivo; details: xenograft study, FIG. 6E
[6] = Tolerability in nude and immunocompetent mice; assay type: in vivo
Excerpt: In summary, endogenous LPAAT-β expression is detected at high levels by both in situ hybridization and immunohistochemistry in particular tumor tissues and often in surrounding stroma and is associated with tumor progression. LPAAT-β overexpression appears to contribute reversibly to transformation and tumorigenesis of immortalized rodent cells and may also contribute to increased transformation of weakly tumorigenic human cell lines. Compounds selected from screening of LPAAT-β inhibitors from different structural families can inhibit proliferation of numerous tumor cell lines in vitro. […] This compound can inhibit the growth of numerous tumor models in mice and may be a tumor-static compound.

[7] = target: T1, LPAAT-β (Homo sapiens, UniProt O15120); experiment: Secondary assay of LPAAT-β activity (radiometric/TLC); assay type: biochemical; details: FIG. 9
T1 construct: the full-length human LPAAT-β cDNA was amplified by PCR; made in house; host or cells: Sf9 insect cells (baculovirus, pFastBac HTc); membrane fraction
T1 sequence (O15120 24-278): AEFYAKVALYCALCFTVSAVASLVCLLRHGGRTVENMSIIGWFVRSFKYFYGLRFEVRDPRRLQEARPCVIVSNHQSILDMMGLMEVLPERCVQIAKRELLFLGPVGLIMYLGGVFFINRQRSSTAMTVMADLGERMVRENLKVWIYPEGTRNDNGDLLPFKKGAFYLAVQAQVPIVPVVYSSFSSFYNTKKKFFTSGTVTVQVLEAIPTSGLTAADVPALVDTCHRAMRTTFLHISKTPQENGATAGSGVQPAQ
Description: The radiometric assay was carried out in Sf9 cell membrane overexpressing LPAAT-β resuspended in HEPES-saline buffer, pH 7.5, 1 mg/ml BSA, 1 mM EDTA and 200 μM [^14C]18:1-CoA and 200 μM sn-1-18:1 lysoPA. The samples were incubated 7 min at 37° C. extracted into organic solvent (CHCl3/CH3OH/HCl at 33/66/1), before loading onto TLC plates. A more detailed protocol for the radiometric assay is described below:
Specifically, this LPAAT assay is a modification of the acyltransferase assay published previously (Hollenback and Glomset, Biochemistry 37: 363-376 (1999)).
1. The basic assay, in a total vol of 50 μl, employs a solution of substrates and the protein sample. Total assay volume, as well as the volume of each solution, can be changed to fit an experiment. In addition, other compounds, ex inhibitors and activators, can be included in the assay as well.
2. […]
7. […] To be able to convert pixel volume (determined by the Storm phosphor imager, see step 8b) into cpm, cpm standard curve must be generated on the plate. ^14C-labeled oleate dilutions in chloroform are made for this purpose. Four stocks (50 cpm/μl to 800 cpm/μl) are made and 2 μl of a different concentration are spotted in each corner of the plate (where previously there was no radioactivity). • d. […]
The PA and lysoPA bands are easily detected in this system because of the carrier added in step 5. […]
8. Quantitating activity: • a. […]

[8] = target: T2, LPAAT-α (Homo sapiens, UniProt Q99943); experiment: Secondary assay, effect on LPAAT-α activity; assay type: biochemical; details: FIG. 9
T2 sequence (Q99943 27-283): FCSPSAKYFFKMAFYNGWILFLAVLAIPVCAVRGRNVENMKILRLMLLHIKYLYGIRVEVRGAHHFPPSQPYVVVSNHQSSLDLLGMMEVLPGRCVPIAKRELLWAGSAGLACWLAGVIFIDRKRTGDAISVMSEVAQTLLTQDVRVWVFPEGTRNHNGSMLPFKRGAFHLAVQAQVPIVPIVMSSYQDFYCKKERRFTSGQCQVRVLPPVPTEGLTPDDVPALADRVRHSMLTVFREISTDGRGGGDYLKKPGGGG

With `Clc1nc(Nc2ccccc2)nc(Nc2ccccc2)n1` [6-chloro-N,N′-diphenyl-[1,3,5]triazine-2,4-diamine] the “concentration effective in blocking the proliferation of MCF-7 cells” value [1] was greater than 20 µM, the “volume of the tumors in mice” value [2] was “decreased as the concentration of the LPAAT-β inhibitor increases” and the “growth of B16 melanoma cells” value [3] was “decrease the growth”. The “growth of Lewis Lung tumor cells” value [4] was “decrease the growth”, the “growth of human DU145 prostate tumor cells” value [5] was “decrease the growth” and the gross pathology ([6]; at least 100 mg/kg/day for 4-5 days) was “no discernable gross pathology”. The tolerated dose ([6]; nude and immunocompetent mice, mouse, in vivo) was “at least 100 mg/kg/day”, the “inhibition of LPAAT-β activity” value [7] was “concentration-dependent inhibition” and the “effect on LPAAT-α activity” value [8] was “minimal effect”.
